Measured values taken from patent publication US10196357B2, “Biaryl compositions and methods for modulating a kinase cascade” (Athenex, Inc., priority 2007, dated 2019).
Where “and” joins values, the source holds several entries; their conditions need not be identical. Equal entries are not always repeated. Where two headings read alike, the source gives them in different places.

Columns and labels:
FAK Tyr 925 = test: intracellular phosphorylation, FAK Tyr 925; type: cell-based; settings: whole cells
Method: HT29 (colon cancer) and c-Src527F/NIH-3T3 (Src transformed) cell lines were treated with KX2-391 or with AstraZeneca's ATP competitive Src inhibitor AZ28. AZ28 serves as a positive comparator to show what a validated Src inhibitor should do in these assays. After treatment with compound, cells were lysed, subjected to PAGE and probed with a battery of antibodies. […] In addition, off-target protein phosphorylation was also investigated. Further, induction of apoptosis was evaluated via Caspase 3 cleavage. Multiple doses of each compound were tested because the trends in response to increasing drug concentration are the most reliable indicator of activity.
The same range of multiples of the GI50 for AZ28 in these two cell lines was run as a comparison.
KX2-391 and AZ28 inhibited Src transphosphorylation.

L3.6pl cells = test: growth inhibition (BrdU), L3.6pl; type: cell-based, human; settings: Homo sapiens, L3.6pl, L3.6pl (Pancreas) cells, single agent
Source text: L3.6pl cells are previously described in Trevino et al. Am J Pathol.

K562 (CML) = test: growth inhibition (BrdU), K562; type: cell-based, Human; settings: Homo sapiens, K562, K562, BrdU, T=72
Source text: (§1) Growth Inhibition. […] T1 values≤T0 values were designated as T, cytotoxicity.

SKOV-3 (Ovarian) = test: growth inhibition (BrdU), SKOV-3; type: cell-based, Human; settings: Homo sapiens, SK-OV-3, SKOV-3, BrdU, T=72
Source text: as §1

[1] = plasma exposure after oral administration; type: in vivo, male CD-1 mice; settings: for concentration at 0.5 h / concentration at 1 h / concentration at 2 h / concentration at 5 h / AUC(0-t) / Cmax / Tmax: male, CD-1, mouse; for concentration at 0.5 h / concentration at 1 h / concentration at 2 h / concentration at 5 h: plasma, po; for AUC(0-t) / Cmax / Tmax: Plasma
Method: Plasma concentrations were measured in mice after oral administration. All doses were formulated in purified water. Four groups of male CD-1 mice were dosed after an overnight fast and fed 4 hours post-dose. Dosing was as follows:
Protein was precipitated with 0.25 mL acetonitrile for plasma, 0.25 mL for brain. After centrifugation, supernatant was directly injected into an LC/MS system. The limit of quantitation was 1 ng/mL using a 50 μL aliquot for plasma and a 50 μL, aliquot for brain. The standard curve was 1 to 1,000 ng/mL for both plasma and brain. HPLC conditions were as follows:
HPLC System: Shimadzu SCL-10 System
• Analytical Column: Aquasil C18 5 μm 100×2 mm column. • Column Temperature: Ambient temperature • Autosampler Temperature: Ambient temperature • Mobile Phase A) 10 mM Ammonium formate in water (pH 4). • B) Acetonitrile. • Flow Rate: 0.6 mL/min • Injection Volume: 2 μL • Gradient:
• Mass Spectrometry Conditions were as follows: • Instrument: ABI Sciex API 4000 • Mode: ESI+ • Experiment: MRM (multiple reaction monitoring) • Transitions: KX2-391: m/z 432.4→114.2 (Rt=3.11 minute) • KX2-361: m/z 406.1→253.2 (Rt=3.33 minute)

Yes(h) = Yes(h) (Homo sapiens, UniProt P07947); test: isolated kinase activity, Yes; type: biochemical; settings: compound @ 10 μM
Sequence of Yes(h) (P07947 whole entry): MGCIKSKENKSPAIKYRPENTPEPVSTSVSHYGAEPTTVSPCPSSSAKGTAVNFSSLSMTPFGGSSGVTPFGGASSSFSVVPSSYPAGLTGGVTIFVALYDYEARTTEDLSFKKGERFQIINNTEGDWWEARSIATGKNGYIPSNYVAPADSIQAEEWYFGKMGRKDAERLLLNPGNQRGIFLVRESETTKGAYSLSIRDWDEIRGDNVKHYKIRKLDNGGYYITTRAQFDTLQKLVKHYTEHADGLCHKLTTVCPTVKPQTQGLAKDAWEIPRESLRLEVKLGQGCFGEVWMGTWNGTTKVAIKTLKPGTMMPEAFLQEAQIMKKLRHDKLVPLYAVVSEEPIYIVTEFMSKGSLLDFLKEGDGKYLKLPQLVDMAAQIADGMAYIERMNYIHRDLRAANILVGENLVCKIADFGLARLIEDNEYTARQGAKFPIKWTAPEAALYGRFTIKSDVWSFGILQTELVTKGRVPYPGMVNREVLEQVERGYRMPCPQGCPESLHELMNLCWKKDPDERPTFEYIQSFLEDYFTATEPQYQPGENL
Source text: (§2) Table 8 illustrates percent activity of isolated kinases in the presence of the AstraZeneca ATP-competitive inhibitor (KX2-328, AZ-28) or KX2-391 relative to control (untreated) isolated kinases.

FGFR2(h) = FGFR2(h) (Homo sapiens, UniProt P21802); test: isolated kinase activity, FGFR2; type: biochemical; settings: compound @ 10 μM
Sequence of FGFR2(h) (P21802 22-821): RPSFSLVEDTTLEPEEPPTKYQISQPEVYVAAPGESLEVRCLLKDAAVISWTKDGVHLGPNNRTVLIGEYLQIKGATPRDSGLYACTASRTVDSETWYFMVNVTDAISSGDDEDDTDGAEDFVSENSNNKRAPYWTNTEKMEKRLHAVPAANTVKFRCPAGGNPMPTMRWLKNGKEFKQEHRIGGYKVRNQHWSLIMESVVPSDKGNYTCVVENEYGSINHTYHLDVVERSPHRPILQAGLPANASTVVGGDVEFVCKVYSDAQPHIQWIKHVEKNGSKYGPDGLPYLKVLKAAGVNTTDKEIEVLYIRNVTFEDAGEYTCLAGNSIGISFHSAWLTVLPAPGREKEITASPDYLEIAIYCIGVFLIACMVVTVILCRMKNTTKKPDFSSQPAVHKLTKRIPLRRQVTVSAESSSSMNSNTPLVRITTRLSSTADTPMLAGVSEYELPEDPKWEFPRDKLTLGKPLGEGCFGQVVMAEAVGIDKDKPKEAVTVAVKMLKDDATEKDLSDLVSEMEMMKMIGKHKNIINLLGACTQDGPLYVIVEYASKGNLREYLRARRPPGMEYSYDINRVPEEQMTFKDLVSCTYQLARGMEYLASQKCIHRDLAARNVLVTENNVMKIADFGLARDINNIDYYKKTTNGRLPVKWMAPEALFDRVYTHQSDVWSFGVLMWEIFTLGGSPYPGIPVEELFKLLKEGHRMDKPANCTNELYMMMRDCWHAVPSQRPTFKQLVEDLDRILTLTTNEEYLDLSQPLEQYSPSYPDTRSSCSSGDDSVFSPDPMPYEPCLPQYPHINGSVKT
Source text: as §2

[2] = body weight in GL261 glioma survival study; type: in vivo; settings: 5 mg/kg, C57BL/6 mice
Method: A brain tumor mouse xenograft study was conducted comparing KX2-361 and KX2-391 (KXO1) to Temodar®. The studies were conducted in C57BL/6 mice. GL261 glioma cells (1×10^5 in 5 μl DMEM) were implanted intracranial coordinates: bregma, lateral 2.0 mm, anterior 1.2 mm, 3.0 mm depth dura. Treatment was initiated 3 days post implantation. The groups were as follows (all doses in 100 μl H2O):
FIGS. 49A-E show the weight gain in each of the C57BL/6 mice in the different treatment groups. The average weight at endpoint for each of the treatment groups is shown below in Table 30. FIG. 50 is a graph showing the average weights over a 40-day period for each of the treatment groups.

[3] = test system: lung cancer cell line A549; test: tumor growth inhibition, A549; type: cell-based, Human; settings: Homo sapiens, A549, A549, BrdU, T=72
Source text: as §1

Pyk2(h) = Pyk2(h) (Homo sapiens, UniProt Q14289); test: isolated kinase activity, Pyk2; type: biochemical; settings: compound @ 10 μM
Sequence of Pyk2(h) (Q14289 whole entry): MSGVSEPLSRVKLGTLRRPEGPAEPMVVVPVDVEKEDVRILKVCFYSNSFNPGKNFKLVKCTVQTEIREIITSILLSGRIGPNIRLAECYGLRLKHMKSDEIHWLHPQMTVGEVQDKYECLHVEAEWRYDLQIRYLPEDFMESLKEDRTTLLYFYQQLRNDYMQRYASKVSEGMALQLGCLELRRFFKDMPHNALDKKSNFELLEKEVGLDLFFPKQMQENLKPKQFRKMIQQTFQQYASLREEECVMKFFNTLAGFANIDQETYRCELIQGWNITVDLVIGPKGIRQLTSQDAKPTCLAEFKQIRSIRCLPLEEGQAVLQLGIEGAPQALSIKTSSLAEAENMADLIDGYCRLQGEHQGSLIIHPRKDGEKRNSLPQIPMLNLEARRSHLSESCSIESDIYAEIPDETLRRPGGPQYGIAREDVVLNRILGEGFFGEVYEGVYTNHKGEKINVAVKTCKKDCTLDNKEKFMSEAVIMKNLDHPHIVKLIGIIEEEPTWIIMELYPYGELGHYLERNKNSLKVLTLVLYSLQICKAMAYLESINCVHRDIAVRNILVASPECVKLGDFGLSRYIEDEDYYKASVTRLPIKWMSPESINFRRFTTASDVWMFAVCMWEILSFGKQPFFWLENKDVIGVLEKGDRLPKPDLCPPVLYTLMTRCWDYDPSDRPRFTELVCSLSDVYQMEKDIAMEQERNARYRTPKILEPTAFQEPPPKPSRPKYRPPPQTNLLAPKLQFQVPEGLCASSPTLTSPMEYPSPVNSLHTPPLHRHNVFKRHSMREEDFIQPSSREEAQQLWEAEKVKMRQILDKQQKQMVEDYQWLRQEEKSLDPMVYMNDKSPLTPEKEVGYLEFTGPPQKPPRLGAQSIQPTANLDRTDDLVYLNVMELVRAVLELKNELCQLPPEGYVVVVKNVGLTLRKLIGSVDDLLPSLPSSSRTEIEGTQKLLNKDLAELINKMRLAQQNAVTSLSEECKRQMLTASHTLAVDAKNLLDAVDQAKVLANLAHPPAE
Source text: as §2

O=C(Cc1ccc(-c2ccc(OCCN3CCOCC3)cc2)cn1)NCc1ccccc1 [KX2-391]
phosphorylation of FAK Tyr 925 (Src transphosphorylation) (FAK Tyr 925): inhibited | GI50 (L3.6pl cells): 53 nM | GI50 (K562 (CML)): 10.9 nM | GI50 (SKOV-3 (Ovarian)): 9.75 nM | concentration at 0.5 h ([1]; 10 mg/kg, single PO dose 10 mg/kg (Group 1), 0.5 hr, read-out: Plasma Concentrations, Group A, B, C): 779 ng/mL | concentration at 0.5 h ([1]; 10 mg/kg, single PO dose 10 mg/kg (Group 1), 0.5 hr, read-out: Plasma Concentrations, Mean): 871 ng/mL | concentration at 1 h ([1]; 10 mg/kg, single PO dose 10 mg/kg (Group 1), 1 hr, read-out: Plasma Concentrations, Mean): 363 ng/mL | concentration at 2 h ([1]; 10 mg/kg, single PO dose 10 mg/kg (Group 1), 2 hr, read-out: Plasma Concentrations, Group A, B, C): 328 ng/mL | concentration at 2 h ([1]; 10 mg/kg, single PO dose 10 mg/kg (Group 1), 2 hr, read-out: Plasma Concentrations, Mean): 287 ng/mL | concentration at 5 h ([1]; 10 mg/kg, single PO dose 10 mg/kg (Group 1), 5 hr, read-out: Plasma Concentrations, Group A, B, C): 133 ng/mL | concentration at 5 h ([1]; 10 mg/kg, single PO dose 10 mg/kg (Group 1), 5 hr, read-out: Plasma Concentrations, Mean): 147 ng/mL | concentration at 0.5 h ([1]; 50 mg/kg, single PO dose 50 mg/kg (Group 2), 0.5 hr, read-out: Plasma Concentrations, Group A, B, C): 8510 ng/mL | concentration at 0.5 h ([1]; 50 mg/kg, single PO dose 50 mg/kg (Group 2), 0.5 hr, read-out: Plasma Concentrations, Mean): 9720 ng/mL | concentration at 1 h ([1]; 50 mg/kg, single PO dose 50 mg/kg (Group 2), 1 hr, read-out: Plasma Concentrations, Group A, B, C): 2370 ng/mL | concentration at 1 h ([1]; 50 mg/kg, single PO dose 50 mg/kg (Group 2), 1 hr, read-out: Plasma Concentrations, Mean): 2060 ng/mL | concentration at 2 h ([1]; 50 mg/kg, single PO dose 50 mg/kg (Group 2), 2 hr, read-out: Plasma Concentrations, Group A, B, C): 1150 ng/mL | concentration at 2 h ([1]; 50 mg/kg, single PO dose 50 mg/kg (Group 2), 2 hr, read-out: Plasma Concentrations, Mean): 1510 ng/mL | concentration at 5 h ([1]; 50 mg/kg, single PO dose 50 mg/kg (Group 2), 5 hr, read-out: Plasma Concentrations, Mean): 922 ng/mL | AUC(0-t) ([1]; single oral dose 10 mg/kg): 1500 ng·h/mL | Cmax ([1]; single oral dose 10 mg/kg): 871 ng/mL | Tmax ([1]; single oral dose 10 mg/kg): 30 min | AUC(0-t) ([1]; single oral dose 50 mg/kg): 10800 ng·h/mL | Cmax ([1]; single oral dose 50 mg/kg): 9720 ng/mL | Tmax ([1]; single oral dose 50 mg/kg): 30 min | Plasma Concentrations, Group A, B, C ([1]; single PO dose 10 mg/kg (Group 1), 0.5 hr, 10 mg/kg): 1096.62 ng/mL and 737.37 ng/mL | Plasma Concentrations, Group A, B, C ([1]; single PO dose 10 mg/kg (Group 1), 2 hr, 10 mg/kg): 271.89 ng/mL and 261.57 ng/mL | Plasma Concentrations, Group A, B, C ([1]; single PO dose 10 mg/kg (Group 1), 5 hr, 10 mg/kg): 147.74 ng/mL and 160.62 ng/mL | Plasma Concentrations, Group A, B, C ([1]; single PO dose 50 mg/kg (Group 2), 0.5 hr, 50 mg/kg): 8334.53 ng/mL and 12315.31 ng/mL | Plasma Concentrations, Group A, B, C ([1]; single PO dose 50 mg/kg (Group 2), 1 hr, 50 mg/kg): 2442.20 ng/mL and 1365.56 ng/mL | Plasma Concentrations, Group A, B, C ([1]; single PO dose 50 mg/kg (Group 2), 2 hr, 50 mg/kg): 1546.09 ng/mL and 1850.18 ng/mL | percent activity of isolated kinase relative to control (Yes(h)): 92% | percent activity of isolated kinase relative to control (FGFR2(h)): 94% | Average weight at endpoint [2]: 14.3 g | GI50 [3]: 9.39 nM | percent activity of isolated kinase relative to control (Pyk2(h)): 97%
